Test results published in US10988477B2 (Merck Patent GmbH, priority 2018, dated 2021).
Where two headings read alike, the source gives them in different places.

Legend:
GCN2 kinase = GCN2 kinase (Homo sapiens, UniProt Q9P2K8); test: GCN2 enzyme inhibition assay (Transcreener ADP2 fluorescence polarization); format: biochemical; details: 280 μM ATP
Procedure, shortened: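 4 nM GCN2 + 200 μM (RS)7 + compound (0–8 μM), 10 min preinc.; start with ATP (280 μM final); 1 h, 25 °C; pH 7.5 Tris/NaCl/MgCl2/DTT; ADP FP readout; IC50, Ki(app) via tight-binding fit.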

[1] = target: intracellular GCN2 (phosphorylation of the GCN2 substrate eIF2α) (Homo sapiens, UniProt Q9P2K8); test: GCN2 cellular inhibition assay (AlphaScreen SureFire P-eIF2α Ser51, borrelidin-treated U2OS cells); format: cell-based
Procedure, shortened: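 Phospho-eIF2α (Ser51) in lysates was quantified by AlphaScreen SureFire after a 1 h, 37 °C treatment of U2OS cells with 10 μM borrelidin and compound at 4-fold dilutions starting from 40 μM final. Inhibition expressed in percent against wells stimulated by borrelidin alone.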

[2] = compounds of Formula II, 4 nM GCN2 kinase
[3] = compounds of Formula II, biomarker assay, phosphorylated eIF2α Ser51 in borrelidin-treated U2OS cells
[4] = Enzyme activity for compounds of Formula IV, Ki(app), 25° C.
[5] = compounds of Formula IV, biomarker assay, phosphorylated eIF2α Ser51 in borrelidin-treated U2OS cells

Chain of GCN2 kinase (Q9P2K8 whole entry): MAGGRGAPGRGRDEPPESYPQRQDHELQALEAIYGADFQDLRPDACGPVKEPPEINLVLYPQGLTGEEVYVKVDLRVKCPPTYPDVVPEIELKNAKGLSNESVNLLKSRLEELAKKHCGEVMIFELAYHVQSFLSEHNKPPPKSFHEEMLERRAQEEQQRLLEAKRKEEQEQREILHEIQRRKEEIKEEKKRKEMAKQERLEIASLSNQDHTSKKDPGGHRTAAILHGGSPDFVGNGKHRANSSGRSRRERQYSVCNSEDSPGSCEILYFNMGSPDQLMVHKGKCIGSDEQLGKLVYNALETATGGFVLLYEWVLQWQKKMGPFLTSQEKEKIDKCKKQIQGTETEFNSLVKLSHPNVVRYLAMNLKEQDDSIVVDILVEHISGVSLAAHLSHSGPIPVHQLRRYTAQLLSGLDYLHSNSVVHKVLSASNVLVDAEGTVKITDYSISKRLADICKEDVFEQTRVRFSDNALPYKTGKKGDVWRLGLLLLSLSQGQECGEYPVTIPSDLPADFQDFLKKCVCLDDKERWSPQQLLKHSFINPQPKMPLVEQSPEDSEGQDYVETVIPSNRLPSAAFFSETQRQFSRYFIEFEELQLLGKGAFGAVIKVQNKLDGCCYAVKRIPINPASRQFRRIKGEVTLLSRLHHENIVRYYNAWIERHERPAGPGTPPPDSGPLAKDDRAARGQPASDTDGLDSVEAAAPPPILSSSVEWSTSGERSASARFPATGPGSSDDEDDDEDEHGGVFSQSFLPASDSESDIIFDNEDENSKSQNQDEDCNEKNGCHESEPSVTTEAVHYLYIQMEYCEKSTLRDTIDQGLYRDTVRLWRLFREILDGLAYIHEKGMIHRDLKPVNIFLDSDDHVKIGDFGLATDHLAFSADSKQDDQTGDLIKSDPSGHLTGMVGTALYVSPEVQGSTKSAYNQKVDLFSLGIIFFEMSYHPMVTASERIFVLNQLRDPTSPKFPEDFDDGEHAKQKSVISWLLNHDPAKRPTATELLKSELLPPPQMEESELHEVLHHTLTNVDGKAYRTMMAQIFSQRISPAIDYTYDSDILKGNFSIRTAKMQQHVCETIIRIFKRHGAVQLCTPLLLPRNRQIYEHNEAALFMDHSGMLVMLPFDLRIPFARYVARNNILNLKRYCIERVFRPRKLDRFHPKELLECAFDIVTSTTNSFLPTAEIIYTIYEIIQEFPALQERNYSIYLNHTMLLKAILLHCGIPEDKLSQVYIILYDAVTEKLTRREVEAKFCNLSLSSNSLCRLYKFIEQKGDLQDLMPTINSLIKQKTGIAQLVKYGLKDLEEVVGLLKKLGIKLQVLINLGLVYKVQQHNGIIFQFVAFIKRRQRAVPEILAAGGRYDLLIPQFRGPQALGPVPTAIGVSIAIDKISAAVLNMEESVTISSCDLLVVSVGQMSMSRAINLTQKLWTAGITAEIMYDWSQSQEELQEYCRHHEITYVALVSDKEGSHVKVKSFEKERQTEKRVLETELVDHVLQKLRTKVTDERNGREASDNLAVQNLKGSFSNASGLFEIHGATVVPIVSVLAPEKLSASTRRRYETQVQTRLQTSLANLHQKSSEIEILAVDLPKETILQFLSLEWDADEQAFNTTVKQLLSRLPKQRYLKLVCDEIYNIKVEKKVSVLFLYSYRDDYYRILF
Chain of intracellular GCN2 (phosphorylation of the GCN2 substrate eIF2α) (Q9P2K8 whole entry): as above

| SMILES | Ki (GCN2 kinase; [2]) | IC50 [1, 3] | further results |
| --- | --- | --- | --- |
| CC1CN(c2cc(-c3cnc4ccc(C(F)F)nn34)ncn2)CC(CNS(C)(=O)=O)O1 (stereo not drawn) [II-33, N-((4-(6-(6-(Difluoromethyl)imidazo[1,2-b]pyridazin-3-yl)pyrimidin-4-yl)-6-methylmorpholin-2-yl)methyl)methanesulfonamide] | < 10 nM | < 500 nM |  |
| O=C1NCCC12CCCN(c1cc(-c3cnc4ccc(C(F)F)nn34)ncn1)C2 (stereo not drawn) [II-51, 7-(6-(6-(Difluoromethyl)imidazo[1,2-b]pyridazin-3-yl)pyrimidin-4-yl)-2,7-diazaspiro[4.5]decan-1-one] | 10 to 1000 nM | 500 to 5000 nM |  |
| OC1CCC2CN(c3ccnc(-c4cnc5cnc(C(F)F)cn45)n3)CC2C1 (stereo not drawn) [IV-116, 2-(2-(6-(Difluoromethyl)imidazo[1,2-a]pyrazin-3-yl)pyrimidin-4-yl)octahydro-1H-isoindol-5-ol] |  |  | Ki (GCN2 kinase; [4]): 100 to 1000 nM; IC50 [1, 5]: > 5000 nM |
| OC[C@H]1CCCN(c2cc(-c3cnc4ccc(C(F)(F)F)nn34)ncn2)C1 [II-516, (S)-(1-(6-(6-(Trifluoromethyl)imidazo[1,2-b]pyridazin-3-yl)pyrimidin-4-yl)piperidin-3-yl)methanol] | 10 to 1000 nM | 500 to 5000 nM |  |
| C[C@H]1CN(c2cc(-c3cnn4ccc(C(F)F)nc34)ncn2)C[C@@H](CNS(C)(=O)=O)C1(F)F [III-12, N-[[(3S,5S)-1-[6-[5-(Difluoromethyl)pyrazolo[1,5-a]pyrimidin-3-yl]pyrimidin-4-yl]-4,4-difluoro-5-methyl-3-piperidyl]methyl]methanesulfonamide] |  |  | Ki (GCN2 kinase; compounds of Formula III, 4 nM GCN2 kinase): < 10 nM; IC50 ([1]; compounds of Formula III, U2OS cells, 10 μM borrelidin, 1 h, read-out: GCN2 Biomarker (IC50)): < 500 nM |
| CC(O)c1ccc2ncc(-c3cc(N4C[C@@H](CNS(C)(=O)=O)C(F)(F)[C@@H](C)C4)ncn3)n2n1 (stereo partly drawn) [II-337, N-(((3S,5S)-4,4-Difluoro-1-(6-(6-(1-hydroxyethyl)imidazo[1,2-b]pyridazin-3-yl)pyrimidin-4-yl)-5-methylpiperidin-3-yl)methyl)methanesulfonamide] | 10 to 1000 nM | > 5000 nM |  |
| Cc1cc(N2CC(C)NC(c3cn[nH]c3)C2C)nc(-c2cnc3cnc(C(F)(F)F)cn23)n1 (single isomer, unassigned) [IV-670, 3-(4-(2,5-Dimethyl-3-(1H-pyrazol-4-yl)piperazin-1-yl)-6-methylpyrimidin-2-yl)-6-(trifluoromethyl)imidazo[1,2-a]pyrazine] |  |  | Ki (GCN2 kinase; [4]): < 10 nM; IC50 [1, 5]: 500 to 5000 nM |
| CC1C(CNS(C)(=O)=O)N(C2CC2)CCN1c1cc(-c2cnc3ccc(C(F)F)nn23)ncn1 (stereo not drawn) [II-463, N-((1-Cyclopropyl-4-(6-(6-(difluoromethyl)imidazo[1,2-b]pyridazin-3-yl)pyrimidin-4-yl)-3-methylpiperazin-2-yl)methyl)methanesulfonamide] | < 10 nM | < 500 nM |  |
| CC1C(CNS(C)(=O)=O)CN(c2cc(-c3cnc4ccc(C(F)F)nn34)ncn2)CC1(F)F (stereo not drawn) [II-381, N-((1-(6-(6-(Difluoromethyl)imidazo[1,2-b]pyridazin-3-yl)pyrimidin-4-yl)-5,5-difluoro-4-methylpiperidin-3-yl)methyl)methanesulfonamide] | < 10 nM | < 500 nM |  |
| CC1C(CNS(C)(=O)=O)NCCN1c1cc(-c2cnc3ccc(C(F)F)nn23)ncn1 (stereo not drawn) [II-313, N-[[4-[6-[6-(Difluoromethyl)imidazo[1,2-b]pyridazin-3-yl]pyrimidin-4-yl]-3-methyl-piperazin-2-yl]methyl]methanesulfonamide] | < 10 nM | < 500 nM |  |
| CS(=O)(=O)NCC1CCCN(c2cc(-c3cnc4ccc(C(F)F)nn34)cc(Cl)n2)C1 (stereo not drawn) [II-61, N-((1-(6-Chloro-4-(6-(difluoromethyl)imidazo[1,2-b]pyridazin-3-yl)pyridin-2-yl)piperidin-3-yl)methyl)methanesulfonamide] | < 10 nM | 500 to 5000 nM |  |
| OCCC1CCN(c2ccnc(-c3cnc4cnc(C(F)(F)F)cn34)n2)CC1 [IV-442, 2-(1-(2-(6-(Trifluoromethyl)imidazo[1,2-a]pyrazin-3-yl)pyrimidin-4-yl)piperidin-4-yl)ethan-1-ol] |  |  | Ki (GCN2 kinase; [4]): 100 to 1000 nM; IC50 [1, 5]: > 5000 nM |
